Assay results from patent US20100285959A1, “HERBICIDAL MIXTURES” (priority 2006, published 2010).

What was measured:
[1] = system: field violet (VIOAR); assay: Test 21 growth chamber, postemergence; format: in vivo, Viola arvensis; details: 19 DAA
Method: (§1) A test was conducted to evaluate the effects on winter barley (HORVW, Hordeum vulgare L.), winter wheat (TRZAW, Triticum aestivum L.), and several weed species, of mixtures of Compound 2 with the commercial herbicide (2,4-dichlorophenoxy)acetic acid (2,4-D), an auxin mimic. […] Plants were treated postemergence at the 2-4 leaf growth stage, and each treatment was replicated one time. […] Plants were watered as needed. […] Results are from single replicates.

[2] = system: winter wheat (TRZAW); assay: Test 20 growth chamber, postemergence; format: in vivo, Triticum aestivum; details: 25 DAA; 2,4-D or MCPA alone 250 g a.i./ha
Method: A test was conducted to evaluate the effects on winter barley (HORVW, Hordeum vulgare L.) and winter wheat (TRZAW, Triticum aestivum L.) of mixtures of Compound 2 with the commercial herbicides (2,4-dichlorophenoxy)acetic acid (2,4-D) and (4-chloro-2-methylphenoxy)acetic acid (MCPA), auxin mimics. […] Plants were treated postemergence at the 2-leaf growth stage, and each treatment was replicated a total of four times (three times in the loam/sand blend and one time in RediEarth). […] Plants were watered as needed. […] Results are the means of the four replicates.

[3] = system: wild mustard (SINAR); assay: Test 21 growth chamber, postemergence; format: in vivo, Sinapis arvensis; details: 19 DAA
Method: as §1

[4] = system: wild buckwheat (POLCO); assay: Test 21 growth chamber, postemergence; format: in vivo, Polygonum convolvulus; details: 19 DAA
Method: as §1

[5] = system: common chickweed (STEME); assay: Test 21 growth chamber, postemergence; format: in vivo, Stellaria media; details: 19 DAA
Method: as §1

[6] = system: Russian thistle (SASKR); assay: Test 22 growth chamber, postemergence; format: in vivo, Salsola kali; details: 25 DAA; 2,4-D or MCPA alone 250 g a.i./ha
Method: A test was conducted to evaluate the effects on winter barley (HORVW, Hordeum vulgare L.), winter wheat (TRZAW, Triticum aestivum L.), and several weed species of mixtures of Compound 2 with the commercial herbicides (2,4-dichlorophenoxy)acetic acid (2,4-D) and (4-chloro-2-methylphenoxy)acetic acid (MCPA), auxin mimics. […] Plants were treated postemergence at the 2-4 leaf growth stage, except KCHSC, SASKR and STEME which were in the 4-8 leaf growth stage. Each treatment was replicated one time. […] Plants were watered as needed. […] Results are from single replicates.

[7] = system: common ragweed (AMBEL); assay: Test 2 field trial, preemergence; format: in vivo, Ambrosia artemisiifolia; design: scale not given here
From the text: Corn seeds (hybrid ‘Pioneer 31G96’) were planted in mid spring season, 3.8 cm deep in a clay loam soil having 2% organic matter and a pH of 6.6. Plots were 6.1 m long by 3.0 m wide with rows spaced 76 cm apart. Seeds were spaced 15 cm apart within the rows. The field was managed using conventional tillage practices. […] A few of the weed species could not be evaluated at every timing. […] Results are the means of the three replicates.

SMILES: O=C(O)COc1ccc(Cl)cc1Cl [2,4-D, (2,4-dichlorophenoxy)acetic acid]
- Postemergence VIOAR Obs ([1]; 2,4-D alone 125 g a.i./ha): 0
- Postemergence VIOAR Obs ([1]; 2,4-D alone 250 g a.i./ha): 20
- Postemergence TRZAW Obs [2]: 18
- Postemergence SINAR Obs ([3]; 2,4-D alone 125 g a.i./ha): 85
- Postemergence SINAR Obs ([3]; 2,4-D alone 250 g a.i./ha): 65
- Postemergence POLCO Obs ([4]; 2,4-D alone 125 g a.i./ha): 20
- Postemergence POLCO Obs ([4]; 2,4-D alone 250 g a.i./ha): 20
- Postemergence STEME Obs ([5]; 2,4-D alone 125 g a.i./ha): 50
- Postemergence STEME Obs ([5]; 2,4-D alone 250 g a.i./ha): 50
- Postemergence SASKR Obs [6]: 60

SMILES: CCNc1nc(Cl)nc(NC(C)C)n1 [Atrazine, atrazine, reference compound]
- AMBEL Obs ([7]; 18 DAA, g a.i./ha: Cpd 2 25, Atrazine 250): 20
- AMBEL Obs ([7]; 18 DAA, g a.i./ha: Cpd 2 50, Atrazine 500): 43
- AMBEL Obs ([7]; 18 DAA, g a.i./ha: Cpd 2 75, Atrazine 750): 57
- AMBEL Obs ([7]; 18 DAA, g a.i./ha: Cpd 2 100, Atrazine 1000): 40
- AMBEL Obs ([7]; 18 DAA, g a.i./ha: Cpd 2 150, Atrazine 1500): 48
- AMBEL Obs ([7]; 28 DAA, g a.i./ha: Cpd 2 25, Atrazine 250): 18
- AMBEL Obs ([7]; 28 DAA, g a.i./ha: Cpd 2 50, Atrazine 500): 69
- AMBEL Obs ([7]; 28 DAA, g a.i./ha: Cpd 2 75, Atrazine 750): 83
- AMBEL Obs ([7]; 28 DAA, g a.i./ha: Cpd 2 100, Atrazine 1000): 86
- AMBEL Obs ([7]; 28 DAA, g a.i./ha: Cpd 2 150, Atrazine 1500): 98
- AMBEL Obs ([7]; 55 DAA, g a.i./ha: Cpd 2 25, Atrazine 250): 12
- AMBEL Obs ([7]; 55 DAA, g a.i./ha: Cpd 2 50, Atrazine 500): 22
- AMBEL Obs ([7]; 55 DAA, g a.i./ha: Cpd 2 75, Atrazine 750): 63
- AMBEL Obs ([7]; 55 DAA, g a.i./ha: Cpd 2 100, Atrazine 1000): 72
- AMBEL Obs ([7]; 55 DAA, g a.i./ha: Cpd 2 150, Atrazine 1500): 90
